In the NIST ThermoML archive (doi:10.1016/j.jct.2019.03.005):
± gives the expanded uncertainty stated by the source.

Conditions: Liquid, Frequency=3 MHz, Pulse-echo method

For `CC(C)(C)c1ccccc1` [(1,1-dimethylethyl)benzene], which speed of sound (298.15 K, 100 kPa) is on record?
The speed of sound was 1316.4 ± 1.5 m/s.

What about the speed of sound (298.15 K, 20100 kPa) of the same compound?
The speed of sound was 1415.8 ± 1.6 m/s.

And the speed of sound (298.15 K, 40100 kPa)?
Its speed of sound is 1501.7 ± 1.7 m/s.

What about the speed of sound (298.15 K, 60100 kPa) of the same compound?
Its speed of sound is 1578.5 ± 1.7 m/s.

What about the speed of sound (298.15 K, 80100 kPa) of the same compound?
The speed of sound was 1647.9 ± 1.8 m/s.

What about the speed of sound (298.15 K, 100100 kPa) of the same compound?
Its speed of sound is 1711.7 ± 1.9 m/s.

What about the speed of sound (313.15 K, 100 kPa) of the same compound?
The speed of sound was 1255.3 ± 1.4 m/s.

What about the speed of sound (313.15 K, 20100 kPa) of the same compound?
Its speed of sound is 1360.3 ± 1.5 m/s.

What about the speed of sound (313.15 K, 40100 kPa) of the same compound?
The speed of sound was 1450.3 ± 1.6 m/s.

And the speed of sound (313.15 K, 60100 kPa)?
The speed of sound was 1529.8 ± 1.7 m/s.

And the speed of sound (313.15 K, 80100 kPa)?
Its speed of sound is 1601.7 ± 1.8 m/s.

And the speed of sound (313.15 K, 100100 kPa)?
Its speed of sound is 1667.3 ± 1.8 m/s.

And the speed of sound (333.15 K, 100 kPa)?
The speed of sound was 1176.9 ± 1.3 m/s.

And the speed of sound (333.15 K, 20100 kPa)?
Its speed of sound is 1290.1 ± 1.4 m/s.

And the speed of sound (333.15 K, 40100 kPa)?
The speed of sound was 1385.4 ± 1.5 m/s.

What about the speed of sound (333.15 K, 60100 kPa) of the same compound?
Its speed of sound is 1469 ± 1.6 m/s.

What about the speed of sound (333.15 K, 80100 kPa) of the same compound?
Its speed of sound is 1543.9 ± 1.7 m/s.

What about the speed of sound (333.15 K, 100100 kPa) of the same compound?
Its speed of sound is 1612.5 ± 1.8 m/s.

And the speed of sound (353.15 K, 100 kPa)?
Its speed of sound is 1101.8 ± 1.2 m/s.

And the speed of sound (353.15 K, 20100 kPa)?
The speed of sound was 1223.5 ± 1.4 m/s.

What about the speed of sound (353.15 K, 40100 kPa) of the same compound?
The speed of sound was 1324.4 ± 1.5 m/s.

And the speed of sound (353.15 K, 60100 kPa)?
The speed of sound was 1411.8 ± 1.6 m/s.

What about the speed of sound (353.15 K, 80100 kPa) of the same compound?
Its speed of sound is 1489.6 ± 1.6 m/s.

What about the speed of sound (353.15 K, 100100 kPa) of the same compound?
Its speed of sound is 1560.2 ± 1.7 m/s.

And the speed of sound (373.15 K, 100 kPa)?
The speed of sound was 1029.9 ± 1.2 m/s.

And the speed of sound (373.15 K, 20100 kPa)?
Its speed of sound is 1161.2 ± 1.3 m/s.

What about the speed of sound (373.15 K, 40100 kPa) of the same compound?
The speed of sound was 1267.7 ± 1.4 m/s.

And the speed of sound (373.15 K, 60100 kPa)?
The speed of sound was 1359 ± 1.5 m/s.

And the speed of sound (373.15 K, 80100 kPa)?
The speed of sound was 1439.6 ± 1.6 m/s.

And the speed of sound (373.15 K, 100100 kPa)?
Its speed of sound is 1512.4 ± 1.7 m/s.

And the speed of sound (393.15 K, 100 kPa)?
The speed of sound was 959.3 ± 1.1 m/s.

What about the speed of sound (393.15 K, 20100 kPa) of the same compound?
The speed of sound was 1101.1 ± 1.2 m/s.

And the speed of sound (393.15 K, 40100 kPa)?
Its speed of sound is 1213.3 ± 1.3 m/s.

And the speed of sound (393.15 K, 60100 kPa)?
Its speed of sound is 1308.5 ± 1.5 m/s.

And the speed of sound (393.15 K, 80100 kPa)?
Its speed of sound is 1392 ± 1.5 m/s.

What about the speed of sound (393.15 K, 100100 kPa) of the same compound?
Its speed of sound is 1466.9 ± 1.6 m/s.

And the speed of sound (413.15 K, 100 kPa)?
The speed of sound was 890.9 ± 1 m/s.

And the speed of sound (413.15 K, 20100 kPa)?
Its speed of sound is 1042.6 ± 1.2 m/s.

What about the speed of sound (413.15 K, 40100 kPa) of the same compound?
The speed of sound was 1161.1 ± 1.3 m/s.

And the speed of sound (413.15 K, 60100 kPa)?
Its speed of sound is 1260.2 ± 1.4 m/s.

And the speed of sound (413.15 K, 80100 kPa)?
Its speed of sound is 1346.6 ± 1.5 m/s.

What about the speed of sound (413.15 K, 100100 kPa) of the same compound?
Its speed of sound is 1423.8 ± 1.6 m/s.

And the speed of sound (433.15 K, 100 kPa)?
Its speed of sound is 823.7 ± 0.9 m/s.

What about the speed of sound (433.15 K, 20100 kPa) of the same compound?
The speed of sound was 987.2 ± 1.1 m/s.

What about the speed of sound (433.15 K, 40100 kPa) of the same compound?
Its speed of sound is 1112.1 ± 1.2 m/s.

And the speed of sound (433.15 K, 60100 kPa)?
The speed of sound was 1215.1 ± 1.4 m/s.

What about the speed of sound (433.15 K, 80100 kPa) of the same compound?
Its speed of sound is 1304.3 ± 1.4 m/s.

What about the speed of sound (433.15 K, 100100 kPa) of the same compound?
Its speed of sound is 1383.6 ± 1.5 m/s.

Which speed of sound (298.15 K, 100 kPa) does the source give for `CC(C)c1ccccc1` [isopropylbenzene] here?
The speed of sound was 1309.1 ± 1.6 m/s.

And the speed of sound (298.15 K, 20100 kPa)?
The speed of sound was 1406.9 ± 1.7 m/s.

And the speed of sound (298.15 K, 40100 kPa)?
The speed of sound was 1491.7 ± 1.8 m/s.

What about the speed of sound (298.15 K, 60100 kPa) of the same compound?
The speed of sound was 1566.8 ± 1.9 m/s.

What about the speed of sound (298.15 K, 80100 kPa) of the same compound?
Its speed of sound is 1634.8 ± 1.9 m/s.

What about the speed of sound (298.15 K, 100100 kPa) of the same compound?
Its speed of sound is 1697.4 ± 2 m/s.

And the speed of sound (313.15 K, 100 kPa)?
Its speed of sound is 1247.6 ± 1.5 m/s.

What about the speed of sound (313.15 K, 20100 kPa) of the same compound?
Its speed of sound is 1351.3 ± 1.6 m/s.

And the speed of sound (313.15 K, 40100 kPa)?
Its speed of sound is 1440 ± 1.7 m/s.

What about the speed of sound (313.15 K, 60100 kPa) of the same compound?
Its speed of sound is 1518.3 ± 1.8 m/s.

And the speed of sound (313.15 K, 80100 kPa)?
Its speed of sound is 1588.9 ± 1.9 m/s.

And the speed of sound (313.15 K, 100100 kPa)?
The speed of sound was 1653.3 ± 1.9 m/s.

What about the speed of sound (333.15 K, 100 kPa) of the same compound?
The speed of sound was 1168.5 ± 1.5 m/s.

And the speed of sound (333.15 K, 20100 kPa)?
Its speed of sound is 1280.5 ± 1.6 m/s.

What about the speed of sound (333.15 K, 40100 kPa) of the same compound?
Its speed of sound is 1374.7 ± 1.7 m/s.

And the speed of sound (333.15 K, 60100 kPa)?
The speed of sound was 1457.2 ± 1.7 m/s.

And the speed of sound (333.15 K, 80100 kPa)?
The speed of sound was 1530.9 ± 1.8 m/s.

And the speed of sound (333.15 K, 100100 kPa)?
The speed of sound was 1598 ± 1.9 m/s.

What about the speed of sound (353.15 K, 100 kPa) of the same compound?
Its speed of sound is 1091.8 ± 1.4 m/s.

And the speed of sound (353.15 K, 20100 kPa)?
The speed of sound was 1213.2 ± 1.5 m/s.

What about the speed of sound (353.15 K, 40100 kPa) of the same compound?
The speed of sound was 1313.2 ± 1.6 m/s.

What about the speed of sound (353.15 K, 60100 kPa) of the same compound?
Its speed of sound is 1399.6 ± 1.7 m/s.

And the speed of sound (353.15 K, 80100 kPa)?
The speed of sound was 1476.5 ± 1.8 m/s.

And the speed of sound (353.15 K, 100100 kPa)?
The speed of sound was 1546 ± 1.8 m/s.

What about the speed of sound (373.15 K, 100 kPa) of the same compound?
The speed of sound was 1017.8 ± 1.3 m/s.

What about the speed of sound (373.15 K, 20100 kPa) of the same compound?
Its speed of sound is 1149.2 ± 1.5 m/s.

And the speed of sound (373.15 K, 40100 kPa)?
The speed of sound was 1255.1 ± 1.6 m/s.

What about the speed of sound (373.15 K, 60100 kPa) of the same compound?
The speed of sound was 1345.6 ± 1.6 m/s.

What about the speed of sound (373.15 K, 80100 kPa) of the same compound?
The speed of sound was 1425.6 ± 1.7 m/s.

What about the speed of sound (373.15 K, 100100 kPa) of the same compound?
Its speed of sound is 1497.4 ± 1.8 m/s.

What about the speed of sound (393.15 K, 100 kPa) of the same compound?
Its speed of sound is 945.6 ± 1.3 m/s.

What about the speed of sound (393.15 K, 20100 kPa) of the same compound?
Its speed of sound is 1088.1 ± 1.4 m/s.

What about the speed of sound (393.15 K, 40100 kPa) of the same compound?
Its speed of sound is 1200.1 ± 1.5 m/s.

And the speed of sound (393.15 K, 60100 kPa)?
The speed of sound was 1294.7 ± 1.6 m/s.

And the speed of sound (393.15 K, 80100 kPa)?
Its speed of sound is 1377.6 ± 1.7 m/s.

And the speed of sound (393.15 K, 100100 kPa)?
Its speed of sound is 1451.6 ± 1.7 m/s.

What about the speed of sound (413.15 K, 100 kPa) of the same compound?
Its speed of sound is 875 ± 1.2 m/s.

And the speed of sound (413.15 K, 20100 kPa)?
Its speed of sound is 1029.6 ± 1.3 m/s.

And the speed of sound (413.15 K, 40100 kPa)?
The speed of sound was 1147.8 ± 1.5 m/s.

What about the speed of sound (413.15 K, 60100 kPa) of the same compound?
The speed of sound was 1246.5 ± 1.5 m/s.

And the speed of sound (413.15 K, 80100 kPa)?
The speed of sound was 1332.1 ± 1.6 m/s.

What about the speed of sound (413.15 K, 100100 kPa) of the same compound?
The speed of sound was 1408.6 ± 1.7 m/s.

What about the speed of sound (433.15 K, 10100 kPa) of the same compound?
The speed of sound was 897.7 ± 1.2 m/s.

And the speed of sound (433.15 K, 20100 kPa)?
The speed of sound was 974 ± 1.3 m/s.

What about the speed of sound (433.15 K, 40100 kPa) of the same compound?
Its speed of sound is 1098.9 ± 1.4 m/s.

What about the speed of sound (433.15 K, 60100 kPa) of the same compound?
Its speed of sound is 1201.3 ± 1.5 m/s.

And the speed of sound (433.15 K, 80100 kPa)?
The speed of sound was 1289.9 ± 1.6 m/s.

What about the speed of sound (433.15 K, 100100 kPa) of the same compound?
The speed of sound was 1368.6 ± 1.7 m/s.
